What was measured:
[1] = test system: MCF-7 (human breast cancer cells); assay: In-vitro anti-tumor experiment (CCK-8), MCF-7 cells; assay type: cell-based
Protocol: (§1) 3.1 Cells at a logarithmic growth phase are collected, the concentration of the cells is respectively regulated into 5×10^4 cells/ml by the 1640 culture medium and the DMEM culture medium, and 100 μl of cell suspension is added into a 96-well plate. […] 3.3 Add CCK-8 reagent after 12 h, 24 h, 36 h, 48 h and 60 h, and incubate for 3 h, and after incubation is completed, the absorption value of each well is measured at OD450 nm of the microplate reader. […]

[2] = test system: MDA-MB-468 (human breast cancer cells); assay: In-vitro anti-tumor experiment (CCK-8), MDA-MB-468 cells; assay type: cell-based
Protocol: as §1

[3] = test system: RL95-2 (human endometrial cancer cells); assay: In-vitro anti-tumor experiment (CCK-8), RL95-2 cells; assay type: cell-based
Protocol: as §1

[4] = test system: 4T1 (mouse breast cancer cells); assay: In-vitro anti-tumor experiment (CCK-8), 4T1 cells; assay type: cell-based; details: for concentration at the highest point of the inhibition rate: 4T1 cells, highest inhibition rate at 12 h
Protocol: 3.1 Cells at a logarithmic growth phase are collected, the concentration of the cells is respectively regulated into 5×10^4 cells/ml by the 1640 culture medium and the DMEM culture medium, and 100 μl of cell suspension is added into a 96-well plate. 3.2 After culture is carried out for 24 h at the temperature of 37° C. at 5% CO2, the concentration gradient of glycocholic acid respectively of 0.1 nmol/L, 0.2 nmol/L, 0.4 nmol/L, 0.8 nmol/L, 1.6 nmol/L, 3.2 nmol/L and 6.4 nmol/L is added into 4T1 mouse breast cancer cells, the concentration gradient of glycocholic acid respectively of 0.02 μmol/L, 0.04 μmol/L, 0.08 μmol/L, 0.16 μmol/L, 0.32 μmol/L, 0.64 μmol/L and 1.28 μmol/L is added into MCF-7 cells, the concentration gradient of glycocholic acid respectively of 0.02 μmol/L, 0.04 μmol/L, 0.08 μmol/L, 0.16 μmol/L, 0.33 μmol/L, 0.66 μmol/L and 1.32 μmol/L is added into MDA-MB-468 cells, the concentration gradient of glycocholic acid respectively of 0.02 μmol/L, 0.04 μmol/L, 0.08 μmol/L, 0.16 μmol/L, 0.32 μmol/L, 0.64 μmol/L and 1.28 μmol/L is added into NIH:OVCAR-3 cells, the concentration gradient of glycocholic acid respectively of 0.02 μmol/L, 0.04 μmol/L, 0.08 μmol/L, 0.16 μmol/L, 0.32 μmol/L, 0.64 μmol/L and 1.28 μmol/L is added into RL-95-2 cells, set up five duplicated wells and meanwhile, set up a blank group and a control group. 3.3 Add CCK-8 reagent after 12 h, 24 h, 36 h, 48 h and 60 h, and incubate for 3 h, and after incubation is completed, the absorption value of each well is measured at OD450 nm of the microplate reader. 3.4 An inhibition rate of each concentration of glycocholic acid for tumor cells is obtained by utilizing a formula of 3.1 Cells at a logarithmic growth phase are collected, the concentration of the cells is regulated into 5×10^4 cells/ml by the 1640 culture medium, and 100 μl of cell suspension is added into a 96-well plate. […] 3.3 Add CCK-8 reagent after 12 h, 24 h, 36 h, 48 h and 60 h, incubate for 3 h, and after incubation is completed, the absorption value of each well is measured at OD450 nm of the microplate reader. […]

FXR protein expression = assay: Western blot of specific target protein expression in 4T1 cells; assay type: cell-based, mouse; details: 0.8 nmol/L, 12 h
Protocol: 2. After proteins of 4T1 cells intervened by glycocholic acid are extracted, by degeneration treatment, changes in the expression of the related proteins are measured according to the Western blot flow.

[5] = test system: 4T1 mouse breast cancer cells; assay: Tumor inhibition rate by animal model (4T1 tumor-bearing BABL/c mice); assay type: in vivo; details: 15 mg/kg intragastric twice/day for two weeks, 4T1 tumor in BABL/c mice
Protocol: 1. Materials: 30 female 10-week-old BABL/c mice purchased from the SPF Experimental Animal Center of the Dalian Medical University; and 4T1 tumor cells purchased from the Shanghai Cell Bank of the Chinese Academy of Sciences. 2.1 Modeling: 4T1 mouse breast cancer cells at a logarithmic growth phase are collected, and the concentration of the cells is adjusted to 2×10^6 cells/ml with PBS; and 0.1 ml of cell suspension is injected under the right armpits of the mice by a sterile syringe. 2.2 Administration: intragastric administration of 15 mg/kg of glycocholic acid is started on the second day after modeling (twice/day), 0.2 mL each time, the equal volume of distilled water is administrated to the control group, and administration is continuously carried out for two weeks. The mice are fasted on the night of the last administration, the mice are sacrificed on the fifteenth day by a cervical dislocation method, tumor tissues under the armpits of the mice are aseptically stripped and weighed, and the tumor inhibition rate is calculated according to a formula of […]

[6] = test system: NIH:OVCAR-3 (human ovarian cancer cells); assay: In-vitro anti-tumor experiment (CCK-8), NIH:OVCAR-3 cells; assay type: cell-based
Protocol: as §1

FXR gene expression = assay: Real-time PCR of specific target RNA expression in 4T1 cells; assay type: cell-based, mouse; details: 0.8 nmol/L, 12 h, vs negative control
Protocol: 2. Method: RNA of the 4T1 cells intervened by glycocholic acid is extracted, and after reverse transcription, the Real-time RCP is carried out to measure the changes in the RNA expression of the specific target of glycocholic acid.

[7] = highest inhibition rate at 36 h

SMILES	IC50 ([1]; Homo sapiens, MCF7, CCK-8, 36 h)	concentration at the highest point of the inhibition rate [1, 7]	IC50 ([2]; Homo sapiens, CCK-8, 36 h)	concentration at the highest point of the inhibition rate [2, 7]	IC50 ([3]; Homo sapiens, CCK-8, 36 h)	concentration at the highest point of the inhibition rate [3, 7]	concentration at the highest point of the inhibition rate [4]	IC50 ([4]; 4T1 mouse breast cancer cells, CCK-8, 12 h)	expression of the specific target protein (FXR) in tumor cells (FXR protein expression)	average mouse tumor mass ([5]; day 15)	tumor inhibition rate ([5]; vs control group)	IC50 ([6]; Homo sapiens, CCK-8, 48 h)	concentration at the highest point of the inhibition rate ([6]; highest inhibition rate at 48 h)	expression of related RNA (FXR gene) after intervention (FXR gene expression)
C[C@H](CCC(=O)NCC(=O)O)[C@H]1CC[C@H]2[C@@H]3[C@H](O)C[C@@H]4C[C@H](O)CC[C@]4(C)[C@H]3C[C@H](O)[C@]12C [glycocholic acid]	640 to 1000 nM	1.28 µmol/L	330 to 660 nM	1.32 µmol/L	320 to 640 nM	1.28 µmol/L	0.8 nmol/L	0.01 to 0.1 nM	increased	0.247 ± 0.08 g	42.83%	160 to 320 nM	1.28 µmol/L	1.5 times
C[C@H](CCC(=O)NCC(=O)[O-])[C@H]1CC[C@H]2[C@@H]3[C@H](O)C[C@@H]4C[C@H](O)CC[C@]4(C)[C@H]3C[C@H](O)[C@]12C.[Na+] [sodium glycocholate]	–	–	–	–	–	–	0.7 nmol/L	–	–	–	–	–	–	–

Reference: patent publication US20220152051A1, “APPLICATION OF GLYCOCHOLIC ACID IN PREPARATION OF ANTITUMOR DRUGS” (DALIAN UNIVERSITY, priority 2019, published 2022)
